Eight molecules from US5288720A, “Angiotensin II receptor blocking 2,3,6 substituted quinazolinones” (American Cyanamid Company, priority 1993, dated 1994) can be followed below.

Broadly, the IC50 is the concentration that inhibits the measured activity by half. Higher therefore signals lower potency.

For the assay, the target named is T1, Angiotensin II Receptor (Bos taurus, UniProt P25104).
T1 construct: The brownish tissue forming the adrenal cortex is scraped off and finely minced with scissors before homogenization; from tissue; host or cells: beef adrenal cortex, microsomal membranes (100,000×g pellet); fresh glands from a local slaughter house (Maxwell-Cohen)
T1 sequence (P25104 1-359): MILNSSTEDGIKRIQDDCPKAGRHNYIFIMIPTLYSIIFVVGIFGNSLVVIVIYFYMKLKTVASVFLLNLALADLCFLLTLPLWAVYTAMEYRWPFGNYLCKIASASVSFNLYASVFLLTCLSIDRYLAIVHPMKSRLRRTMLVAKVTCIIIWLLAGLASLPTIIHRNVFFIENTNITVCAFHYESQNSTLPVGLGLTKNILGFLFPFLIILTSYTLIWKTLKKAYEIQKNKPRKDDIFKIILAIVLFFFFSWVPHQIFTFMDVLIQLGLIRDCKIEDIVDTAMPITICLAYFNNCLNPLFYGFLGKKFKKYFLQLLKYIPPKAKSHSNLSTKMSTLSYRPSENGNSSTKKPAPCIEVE
Put plainly: Receptor Binding Assay: Binding of [^125 I](Sar^1,Ile^8)AngII to beef adrenal cortex membranes. The following applies: 60 min, room temperature. A digest of the protocol:
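Competition binding of [125I](Sar1,Ile8)AngII (2200 Ci/mmole) to bovine adrenal cortex membranes (100,000×g pellet) in 50.0 mM Tris.HCl, pH 7.2, 0.1 mM PMSF. Compounds were added in DMSO and incubated 60 min at room temperature, in triplicate. Bound ligand was filtered onto PEI-presoaked filters and gamma-counted, with nonlinear analysis.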
As to `CCCCc1nc2ccc(C(OC)C3CCCO3)cc2c(=O)n1Cc1ccc(-c2ccccc2-c2nn[nH]n2)cc1` (single isomer, unassigned) [Example 24], the IC50 stood at 38 nM.
Consider `CCCCc1nc2ccc(C(OC)C3CCCO3)cc2c(=O)n1Cc1ccc(-c2ccccc2-c2nn[nH]n2)cc1` (single isomer, unassigned; isomer 1) [Example 23, 2-Butyl-6-[methoxy(tetrahydro-2-furanyl)methyl-3-[[2'-(1H-tetrazol-5-yl)[1,1'-biphenyl]-4-yl]-methyl]-4(3e,uns/H/ )-quinazolinone isomer 1], for which the concentration for half-maximal inhibition (IC50) turned out to be 68 nM. This IC50 lies about 1.8-fold higher than the previous one.
In turn, `CCCCc1nc2ccc(C(O)C3CCN(C)C3=O)cc2c(=O)n1Cc1ccc(-c2ccccc2-c2nn[nH]n2)cc1` (single isomer, unassigned; isomer 1) [Example 32, 2-Butyl-6-[hydroxy(1-methyl-2-oxo-3-pyrrolidinyl)methyl]-3-[[2'-(1e,uns/H/ -tetrazol-5-yl)[1,1'-biphenyl]-4-yl]methyl]-4(3H)-quinazolinone isomer 1] gave a half-maximal inhibitory concentration (IC50) of 41 nM.
The molecule `CCCCc1nc2ccc(C(O)C3CCCN(C)C3=O)cc2c(=O)n1Cc1ccc(-c2ccccc2-c2nn[nH]n2)cc1` (single isomer, unassigned; isomer 1) [Example 37, 2-Butyl-6-hydroxy(1-methyl-2-oxo-3-piperidinyl)methyl]-3-[[2'-(1H-tetrazol-5-yl)[1,1'-biphenyl]-4-yl]methyl]-4(3H)-quinazolinone isomer 1] returned an IC50 of 41 nM.
Molecule `CCCCc1nc2ccc(C(OC)C3CCCN(C)C3=O)cc2c(=O)n1Cc1ccc(-c2ccccc2-c2nn[nH]n2)cc1` (single isomer, unassigned; isomer 1) [Example 42, 2-Butyl-6-methoxy(1-methyl-2-oxo-3-piperidinyl)methyl]-3-[[2' -1H-tetrazol-5-yl)[1,1'-biphenyl]-4-yl]methyl-4(3H)-quinazolinone isomer 1] returned an IC50 of 92 nM.
`CCCCc1nc2ccc(C(O)C3CCN(C)C3=O)cc2c(=O)n1Cc1ccc(-c2ccccc2-c2nn[nH]n2)cc1` (single isomer, unassigned; isomer 2) [Example 33, 2-Butyl-6-[hydroxy(1-methyl-2-oxo-3-pyrrolidinyl)methyl-3-[[2'-(1H-tetrazol-5-yl)[1,1'-biphenyl]-4-yl]methyl]-4(3H)-quinazolinone isomer 2] displayed an IC50 of 29 nM.
The result for `CCCCc1nc2ccc(C(O)C3CCCN(C)C3=O)cc2c(=O)n1Cc1ccc(-c2ccccc2-c2nn[nH]n2)cc1` (single isomer, unassigned; isomer 2) [Example 38, 2-Butyl-6-hydroxy(1-methyl-2-oxo-3-piperidinyl)methyl-3-[[2'-(1H-tetrazol-5-yl)[1,1'-biphenyl]-4-yl]methyl-4(3H)-quinazolinone isomer 2] reads 67 nM.
The molecule `CCCCc1nc2ccc(C(OC)C3CCCN(C)C3=O)cc2c(=O)n1Cc1ccc(-c2ccccc2-c2nn[nH]n2)cc1` (single isomer, unassigned; isomer 2) [Example 43, 2-Butyl-6-[methoxy(1-methyl-2-oxo-3-piperidinyl)methyl]-3-[[2'-(1H-tetrazol-5-yl)[1,1'-biphenyl]-4-yl]methyl]-4(3H)-quinazoline isomer 2] came in with an IC50 of 71 nM. This IC50 and that of the molecule before are within 1.5-fold of each other.
